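These data come from cells grown in 96-well plates and exposed to compound for 48 hours at five concentrations. GI50 is the concentration that inhibits growth by half. Definition used: TGI = concentration required for complete inhibition of growth.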
Assays:
Assay in all cases: NCI-60 cell line screen, 48 h
[1] = system: MALME-3M melanoma
[2] = system: OVCAR-8 ovarian
[3] = system: EKVX NSCLC
[4] = system: SN12C renal
[5] = system: TK-10 renal
[6] = system: SW-620 colon
[7] = system: SF-268 CNS
[8] = system: CAKI-1 renal
[9] = system: NCI-H460 lung
[10] = system: MCF7 breast

| Compound | TGI [1] [µM] | TGI [2] [µM] | TGI [3] [µM] | TGI [4] [µM] | TGI [5] [µM] | TGI [6] [µM] | TGI [7] [µM] | TGI [8] [µM] | TGI [9] [µM] | GI50 [1] [µM] | GI50 [10] [µM] | TGI [10] [µM] | GI50 [2] [µM] | GI50 [4] [µM] | GI50 [5] [µM] | GI50 [6] [µM] | GI50 [9] [µM] | GI50 [7] [µM] | GI50 [8] [µM] |
| --- | --- | --- | --- | --- | --- | --- | --- | --- | --- | --- | --- | --- | --- | --- | --- | --- | --- | --- | --- |
| CCNCC(=O)O[C@]1(CC)C(=O)OCc2c1cc1n(c2=O)Cc2cc3ccccc3nc2-1 | 13.2 | 5.68 | > 100 | 11.2 | 99 | > 62.5 | > 100 | 4.65 | – | – | – | – | – | – | – | – | – | – | – |
| CC(C)c1ccccc1NC(=O)C(=O)Cc1nc2ccccc2s1 | > 100 | > 100 | > 100 | > 100 | > 100 | > 100 | > 100 | > 100 | > 100 | – | – | – | – | – | – | – | – | – | – |
| O=C(CO)CC(=O)C(=O)Nc1nc([N+](=O)[O-])cs1 | > 100 | > 100 | > 100 | > 100 | > 100 | > 100 | > 100 | > 100 | > 100 | – | – | – | – | – | – | – | – | – | – |
| Cc1cc2c(=O)n(-c3ccc(F)cc3)c(C)nc2c(C(=O)O)c1C | > 100 | > 100 | > 100 | > 100 | > 100 | > 100 | > 100 | > 100 | > 100 | – | – | – | – | – | – | – | – | – | – |
| N/N=C1\C(=O)N(C2CCCCC2)C(=O)C1C(=O)NC1CCCCC1 (stereo not given) | > 100 | > 100 | > 100 | 93.6 | – | > 100 | > 100 | > 100 | > 100 | – | – | – | – | – | – | – | – | – | – |
| COc1ccc(/C(=N/NC(=O)NN)C(c2ccc(OC)cc2)C2(O)CNc3c(Cl)cc(Cl)cc32)cc1 (stereo not given) | > 100 | > 100 | > 100 | > 100 | > 100 | > 100 | > 100 | – | > 100 | – | – | – | – | – | – | – | – | – | – |
| CC(=O)C1CC=C(C)CC1 (stereo not given) | > 100 | > 100 | > 100 | > 100 | > 100 | > 100 | > 100 | > 100 | > 100 | – | – | – | – | – | – | – | – | – | – |
| Cc1cc(N(CCC#N)S(C)(=O)=O)ccc1C=O | > 100 | > 100 | – | > 100 | – | > 100 | > 100 | > 100 | > 100 | – | – | – | – | – | – | – | – | – | – |
| CC1C[C@H](OC(N)=O)C(C)CC1=O (stereo not given in full) | > 100 | > 100 | > 100 | > 100 | > 100 | > 100 | > 100 | > 100 | > 100 | – | – | – | – | – | – | – | – | – | – |
| CC(=O)N1CC(Nc2ccc(OC(F)(F)F)cc2)=CC1=O | > 100 | > 100 | – | > 100 | > 100 | > 100 | > 100 | > 100 | > 100 | 61.5 | 0.436 | > 100 | 3.63 | 7.95 | 5.85 | 0.476 | 0.696 | 14.4 | 3.05 |
| Cc1ccc(C2NC(=S)NC3=C2CCOc2c3ccc3ccccc23)cc1 (stereo not given) | 7.73 | > 100 | – | > 100 | > 100 | – | > 100 | 11.7 | > 100 | 2.98 | 32.4 | > 100 | > 100 | > 100 | > 100 | – | 64.8 | 96 | 3.07 |

Reference: PubChem BioAssay (NCI)
